Experimental findings from US20230245787A1, “METHODS FOR PREDICTING SYNERGISTIC DRUG COMBINATION” (GenomiCare Biotechnology (Shanghai) Co., Ltd, priority 2020, published 2023) are described below.

The experiment deals with Hepatocellular Carcinoma (HCC) and Intrahepatic Cholangiocarcinoma (ICC). The experiment is described as follows: Exhaustive Cox proportional hazards (ECPH) model on real-world survival data of drug combination groups. The experiment is classed as in vivo, human. The conditions noted are these: Cox PH.
Where [1] appears, read: Regorafenib x Lenvatinib groups (Contingency Table B).
[2] abbreviates: Sorafenib x Lenvatinib groups (Contingency Table A).

Excerpt: Then, a novel exhaustive Cox proportional hazards model (ECPH) model is used to evaluate all possible drug combinations with respect to their efficacy in prolonging patients' lives. In terms of efficacy, there can be three types of drug interaction: additive, synergistic, and antagonistic.
The approach used in the present disclosure further extends the CPH model. In an example process, drugs used for fewer than one treatment cycle or the number of patients in any variables less than 15 were removed. Then, a 2×2 contingency table is set up, in which rows are defined by every unique genomic or clinical variable, and the columns are defined by drug variable (See Table 3 as an illustration). Then the CPH model (as described in “The Robust Inference for the Cox Proportional Hazards Model”, D. Y. Lin &L. J. Wei, Journal of the Am. Stat. Assoc., pp. 1074-1078, 1989) is used to calculate independent risk factors, cumulative hazard-ratios, and p-values for each drug combination table.
Additive combination definition: The HR score of the drug A+ plus factor B+ group is between the other two treatment groups (A+B− and A−B+). The P-value of the drug A+ plus factor B+ group is not statistically significant compared with the other two treatment groups (A+B− and A−B+).
Synergistic combination definition: The HR score of the drug A+ plus factor B+ group is smaller than the other two treatment groups (A+B− and A−B+). […] The drug A+ plus factor B+ group is the statistically independent variable of the other two treatment groups (A+B− and A−B+).
In this example, data were collected and analyzed in the following steps:
(2) Real-world clinical electronic health records (EHRs) collection, clinical data entry and l long-term follow-up, according to the flowchart shown in FIG. 4.
(3) Comprehensive genomic data is matched with real-world treatment patterns and clinical outcomes feature database and analysis workflow, as shown in FIG. 5.
(4) A large one-hot encoding matrix(˜10,000*10,000) of comprehensive genomic and clinical factors. Based on the one-hot encoding matrix, the combined effects of all factors such as: age, gender, gene mutation, and drug treatment can be obtained.
(5) Applying exhaustive Cox proportional hazards model (ECPH) model
a. Patients are divided into four categories based on the combined use of the two drugs. For an example: Patients treated with Lenvatinib and without Sorafenib were defined as the Lenvatinib treatment group. Patients treated with Sorafenib and without Lenvatinib were defined as the Sorafenib treatment group. Patients treated with Sorafenib and Lenvatinib were defined as the Sorafenib-Lenvatinib treatment group. Patients treated without Sorafenib and Lenvatinib were defined as Sorafenib-Lenvatinib free treatment group.
b. 2×2 contingency tables were calculated for all possible drug combinations pairs: Millions of possible combinations of Lenvatinib.
c. Cox PH model (The Robust Inference for the Cox Proportional Hazards Model D. Y. Lin &L. J. Wei Pages 1074-1078) was used to calculate independent risk factors, cumulative hazard-ratios, and p-values for each drug combination table. […] It can be estimated as follow: h(t)=h0(t)×exp(b1x1+b2x2+ . . . +bpxp) where, • t represents the survival time. • h(t) is the hazard function determined by a set of p covariates (x1, x2, . . . , xp) • the coefficients (b1, b2, . . . , bp) measure the impact (i.e., the effect size) of covariates. • the term h0 is referred to the baseline hazard.

Regarding `COc1cc2nccc(Oc3ccc(NC(=O)NC4CC4)c(Cl)c3)c2cc1C(N)=O` [Lenvatinib], the “HR (hazard ratio)” value (PD-1/PD-L1 x Lenvatinib groups (Contingency Table C), Chinese HCC and ICC patients) was 1.00; the “HR (hazard ratio)” value under setting [1] amounted to 0.74; the “HR (hazard ratio)” value under setting [2] stood at 0.56.

In the case of `CNC(=O)c1cc(Oc2ccc(NC(=O)Nc3ccc(Cl)c(C(F)(F)F)c3)c(F)c2)ccn1` [Regorafenib], under setting [1], the “HR (hazard ratio)” value was found to be 0.99. For the compound `CNC(=O)c1cc(Oc2ccc(NC(=O)Nc3ccc(Cl)c(C(F)(F)F)c3)cc2)ccn1` [Sorafenib], the “HR (hazard ratio)” value under setting [2] is given as 0.76.
